Measurements: patent US20160115540A1, “PRODRUGS AND DRUGS” (Biogen MA Inc., priority 2013, published 2016)
Counter-ions that a name gives are not always drawn.

What was measured:
brain = experiment: Transcriptional profiling, multi-dosing regimen, naïve mice: brain; format: in vivo; conditions: for FC: BRAIN_HEMI, 100MMF-vs-Veh
Procedure: (§1) In vivo, DMF is rapidly metabolized to monomethyl fumarate (MMF). […] Animals were exposed to CO2 and whole blood collected via cardiac puncture. Two 100 μl aliquots of whole blood were collected in 1.5 mL microcentrifuge tubes and snap frozen in liquid nitrogen. Peripheral (liver, spleen, kidney and jejunum) and CNS brain (cerebellum, hippocampus, striatum and cortex) tissues were harvested and snap frozen in liquid nitrogen, with special care taken to collect tissues of similar size and from the same location. All samples were stored at -80° C. until RNA extraction was conducted. For RNA preparation, frozen tissues were placed in 2 mL RNAse-free 96-well blocks with 1.5 mL QIAzol Lysis Reagent (QIAgen) and a 3.2 mm stainless steel bead (BioSpec Products, Bartlesville, Okla.). Tissues were disrupted for four cycles of 45 seconds in a Mini-Beadbeater (Biospec Products). RNA was extracted in chloroform and the aqueous phase was mixed with an equal volume of 70% ethanol. Extracted RNA was applied to RNeasy 96 plates and purified by the spin method according to the manufacturer's protocol (RNeasy 96 Universal Tissue Protocol, QIAgen, Hilden Germany). […] Two micrograms of biotin labeled […] probe were hybridized to Affymetrix GeneChip Affymetrix HT_MG-430_PM plate arrays with modified conditions as described in […] et al. Washing and staining of the hybridized arrays were completed as described in the GeneChip Expression analysis technical manual for HT plate arrays using the Genechip® Array Station (Affymetrix, Santa Clara, Calif.) with modifications as described in […] et al. The processed GeneChip® plate arrays were scanned using GeneTitan scanner (Affymetrix, Santa Clara, Calif.). Affymetrix scans were subject to quality control (QC) measures. These tests included a visual inspection of the distribution of raw signal intensities and an assessment of RNA degradation, relative log expression (RLE), and normalized unsealed standard error (NUSE). All sample scans that passed these QC metrics were included in the analysis. All CEL files were subjected to GC-content-based Robust Multi-array Average (GCRMA) normalization (version 2.20.0) (Irizarry R A, et al. Nucleic Acids Res 2003; 31:e15; Li C, et al. […] Stat Appl Genet Mol Biol 2004; 3:Article3). […] Springer Science+Business Media 2005). Changes in gene expression were studied by applying a linear modeling approach to fit gene expression levels according to the defined groups of samples (e.g. DMF-, MMF-, and Vehicle-treated animals) and Bayesian posterior error analysis as implemented by Smyth (Smyth G K. Stat Appl Genet Mol Biol 2004; 3:Article3). The comparisons considered included: DMF-vs-MMF, DMF-vs-Vehicle, and MMF-vs-Vehicle. […] Very few DEGs are observed in blood and tissues derived from the central nervous system (brain, cerebellum, cortex, striatum, and spinal cord).

spinal cord = experiment: Transcriptional profiling, multi-dosing regimen, naïve mice: spinal cord; format: in vivo
Procedure: as §1

[1] = Table 13: Naïve, Single Dose (so in the source), 90 mpk MMF-vs-Vehicle, 12 h after last dosing
[2] = SpinalCord, multi-dosing, MMF-vs-Vehicle

COC(=O)/C=C/C(=O)O [MMF, monomethyl fumarate]
FC (brain; 0610037L13Rik 1429879_PM_at): −1.51
FC (brain; 1436646_PM_at (no gene symbol)): −1.53
FC (brain; 1437987_PM_at (no gene symbol)): −1.66
FC (brain; 1438259_PM_at (no gene symbol)): −1.59
FC (brain; 2310079F09Rik 1433201_PM_at): 2.17
FC (brain; 2610021A01Rik 1438786_PM_a_at): −1.90
FC (brain; 2610044O15Rik 1428693_PM_at): −1.52
FC (brain; 2900062L11Rik 1428333_PM_at): −1.50
FC (brain; 4930432O21Rik 1434625_PM_at): −1.66
FC (brain; 4930453N24Rik 1438553_PM_x_at): −1.61
FC (brain; 4933421E11Rik 1428162_PM_at): −1.50
FC (brain; A730017C20Rik 1437528_PM_x_at): −2.06
FC (brain; AI597468 1433897_PM_at): −1.51
FC (brain; AI747699 1433914_PM_at): −2.28
FC (brain; Abi1 1438506_PM_s_at): −2.04
FC (brain; Acad9 1429581_PM_at): −1.55
FC (brain; Akr1a4 1430123_PM_a_at): −1.75
FC (brain; Aldh9a1 1436689_PM_a_at): −1.63
FC (brain; Aldh18a1 1437325_PM_x_at): −1.51
FC (brain; Ampd2 1438941_PM_x_at): −1.76
FC (brain; Apex1 1437715_PM_x_at): −1.52
FC (brain; Appl1 1436116_PM_x_at): −1.62
FC (brain; Arhgap21 1428369_PM_s_at): −1.66
FC (brain; Atp13a5 1436411_PM_at): −1.51
FC (brain; Atxn10 1438653_PM_x_at): −1.69
FC, Depp (1433836_PM_a_at) (brain; BrainHemi, multi-dosing, MMF-vs-Vehicle): −1.01
FC (brain; Btg1 /// LOC100047353 1437455_PM_a_at): −1.55
FC (brain; Cadm2 1429211_PM_at): −1.76
FC (brain; Cadm2 1435146_PM_s_at): −2.25
FC (brain; Cherp 1436885_PM_a_at): −1.99
FC (brain; Chuk 1428210_PM_s_at): −1.68
FC (brain; Clcc1 1436390_PM_a_at): −1.64
FC (brain; Clvs1 1433906_PM_at): −1.54
FC (brain; Cpt1a 1434866_PM_x_at): −1.81
FC (brain; Cttnbp2 1435435_PM_at): −1.75
FC (brain; Dab2 1429693_PM_at): 1.53
FC (brain; Ddx5 1438371_PM_x_at): −1.52
FC (brain; Derl1 1437723_PM_s_at): −1.51
FC (brain; Dnpep 1438557_PM_x_at): −1.50
FC (brain; Enoph1 1437327_PM_x_at): −1.62
FC (brain; Fam13c 1436761_PM_s_at): −1.83
FC (brain; Fbxo11 1434108_PM_at): −1.50
FC (brain; Gm5256 /// Gm5529 /// Slc25a5 1438360_PM_x_at): −1.53
FC (brain; Gm5256 /// Gm5529 /// Slc25a5 1438922_PM_x_at): −1.51
FC (brain; Gm6159 /// Hnrnpr 1437526_PM_x_at): −1.61
FC (brain; Gm11793 /// Hnrnpf 1437099_PM_x_at): −1.53
FC (brain; Gm13342 /// Gm15776 /// Gm3150 /// Gng5 /// LOC100044719 1436946_PM_s_at): −1.70
FC (brain; Gm14288 1429712_PM_at): −1.68
FC (brain; Gns 1433488_PM_x_at): −2.01
FC (brain; Gria4 1436772_PM_at): −1.57
FC (brain; Hadhb 1437172_PM_x_at): −1.86
FC (brain; Hbxip 1436152_PM_a_at): −1.65
FC (brain; Higd1c /// Mettl7a1 /// Mettl7a2 1434150_PM_a_at): −1.60
FC (brain; Hnrpdl 1428224_PM_at): −1.60
FC (brain; Hs3st2 1438624_PM_x_at): −1.86
FC (brain; Impa1 1436848_PM_x_at): −1.55
FC (brain; Ing1 1433267_PM_at): 1.53
FC (brain; Ipo4 1436420_PM_a_at): −1.64
FC (brain; Itgb8 1436223_PM_at): −1.59
FC (brain; LOC100047324 /// Sesn1 1438931_PM_s_at): −1.97
FC (brain; Laptm4b 1436915_PM_x_at): −1.68
FC (brain; Lasp1 1438634_PM_x_at): −1.50
FC (brain; Mettl9 1438171_PM_x_at): −1.63
FC (brain; Mthfd2l 1429599_PM_a_at): −1.71
FC (brain; Ncoa2 1435233_PM_at): −1.55
FC (brain; Ndufb6 1434056_PM_a_at): −1.56
FC (brain; Nelf 1436959_PM_x_at): −1.65
FC (brain; Nxph1 1436718_PM_at): −1.56
FC (brain; Paics 1436298_PM_x_at): −1.57
FC (brain; Paqr3 1429216_PM_at): −1.56
FC (brain; Phyhipl 1437062_PM_s_at): −1.69
FC (brain; Pisd-ps1 /// Pisd-ps3 1436944_PM_x_at): −2.43
FC (brain; Pofut2 1437845_PM_x_at): −1.98
FC (brain; Poldip3 1437837_PM_x_at): −1.74
FC (brain; Polr3a 1437525_PM_a_at): −1.76
FC (brain; Ppip5k2 1433856_PM_at): −1.57
FC (brain; Prkg2 1435162_PM_at): −1.69
FC (brain; Prss23 1437671_PM_x_at): −1.74
FC (brain; Ptpdc1 1433823_PM_at): −1.59
FC (brain; Ptpn2 1438562_PM_a_at): −1.74
FC (brain; Rgs19 1434940_PM_x_at): −1.51
FC (brain; Rif1 1429490_PM_at): −1.82
FC (brain; Rnf14 1437035_PM_x_at): −1.68
FC (brain; Rnf157 1434427_PM_a_at): −1.67
FC (brain; Sfrs13b 1437168_PM_at): −1.66
FC (brain; Slc9a3r1 1438115_PM_a_at): −1.85
FC (brain; Slc12a6 1436989_PM_s_at): −1.80
FC (brain; Snx16 1438803_PM_s_at): −1.55
FC (brain; Sp4 1437508_PM_at): −1.54
Number of differentially expressed genes identified: Brain Hemi (brain; [1]): 280
FC (brain; Tchh 1434425_PM_at): −1.64
FC (brain; Tmem41b 1428586_PM_at): −1.89
FC (brain; Tox3 1436600_PM_at): −1.56
FC (brain; Trim9 1434249_PM_s_at): −1.58
FC (brain; Ttc14 1437878_PM_s_at): −1.64
FC (brain; Tubgcp4 1433659_PM_at): −1.54
FC (brain; Uba2 1437278_PM_a_at): −1.50
FC (brain; Uba3 1435164_PM_s_at): −1.65
FC (brain; Zdhhc20 1434236_PM_at): −1.64
FC (brain; Zfp110 1437236_PM_a_at): −1.77
FC (brain; Zfp260 1436495_PM_s_at): −1.65
FC (brain; Zfp788 1429371_PM_at): −1.65
FC, Depp (1433836_PM_a_at) (spinal cord; [2]): −1.16
FC, Depp (1433837_PM_at) (spinal cord; [2]): 1.05
Number of differentially expressed genes identified: Spinal Cord (spinal cord; [1]): 0
